From US20250114367A1, “METHOD OF TREATING HAIR LOSS DISORDERS” (Sun Pharmaceutical Industries, Inc., priority 2023, published 2025)

Columns and labels:
[1] = system: subjects with AA; assay: Open-label extension (OLE) studies: safety
Protocol: Two separate OLE trials were conducted in North America (CP543.5001) and the European Union (CP543.5002). […] Both OLE trials were similarly designed, except: Trial CP543.5001 (North America) participants have the opportunity to continue in the trial for a maximum of 276 weeks; and Trial CP543.5002 (European Union) participants have the opportunity to continue in the trial for a maximum of 108 weeks.
Subjects receiving any active dose of deuruxolitinib in the qualifying trials were initially assigned to receive either 8 mg BID or 12 mg BID in the OLE trial. Subjects receiving placebo in the qualifying trial were assigned to either deuruxolitinib 8 mg BID or 12 mg BID. Subjects were allowed to switch doses during the OLE after initial treatment assignment at the discretion of the Principal Investigator.

[2] = system: adult subjects with moderate to severe AA; assay: Phase III trial: Hair Quality Patient Reported Outcome (QPRO); type: in vivo, human; conditions: Weeks 12, 16, 20, and 24
Protocol: A Phase III trial was conducted to assess the efficacy and safety of CTP-543 in adult subjects with moderate to severe AA. Approximately 440 adult male and female subjects 18 to 65 years of age, inclusive, with moderate to severe AA participated in the study. Subjects with definitive diagnosis of AA, and at least 50% hair loss, as defined by a SALT score ≥50, who met all of the inclusion criteria and none of the exclusion criteria participated in the study.
The Screening Period lasted up to 28 days prior to initiation of study drug. […] Randomization was stratified by scalp hair loss into 1 of the following 2 categories: 1) partial scalp hair loss (SALT ≥50 and <95), 2) complete or near complete scalp hair loss (SALT ≥95).
Additional secondary efficacy endpoints included the following: • Relative change in SALT scores from baseline at Weeks 4, 8, 12, 16, 20, and 24. • Percentage of responders (defined as “much improved” or “very much improved”) using the Clinical Global Impression of Improvement (CGI-I) at Weeks 12, 16, 20, and 24. • Percentage of responders (defined as “much improved” or “very much improved”) using the Patient Global Impression of Improvement (PGI-I) at Weeks 12, 16, 20, and 24. • Change from baseline in the Clinical Global Impression of Severity (CGI-S) at Weeks 12, 16, 20, and 24. • Change from baseline in the Patient Global Impression of Severity (PGI-S) at Weeks 12, 16, 20, and 24. • Change from baseline on the Brigham Eyebrow Tool for Alopecia (BETA) score at Weeks 12 and 24. • Change from baseline on the Brigham Eyelash Tool for Alopecia (BELA) score at Weeks 12 and 24. • Percentage of subjects achieving at least a 75% relative reduction in SALT score from baseline at Weeks 12 and 24. • Percentage of subjects achieving at least a 90% relative reduction in SALT score from baseline at Weeks 12 and 24. • Percentage of responders (defined as “satisfied” or “very satisfied”) on the SPRO scale at Weeks 12, 16, and 20. • Change from baseline in the SPRO scale at Weeks 12, 16, 20, and 24. • Percentage of subjects achieving a ≥2-point change from baseline in the SPRO scale at Weeks 12, 16, 20, and 24. • Change from baseline on the individual items of the Hair Quality Patient Reported Outcome (QPRO) scale at Weeks 12, 16, 20, and 24. • Change from baseline in the depression scale of the Hospital Anxiety and Depression Scale (HADS) at Week 24. • Change from baseline in the anxiety scale of the HADS at Week 24. • Percentage of subjects achieving an absolute SALT score of ≤20 at Week 4. • Percentage of subjects achieving an absolute SALT score of ≤10 at Week 24
The individual items of satisfaction with thickness of hair coverage, satisfaction with evenness of hair coverage, satisfaction with eyebrows, and satisfaction with eyelashes are rated on a scale of 1 to 5. A decrease from baseline in the QPRO score represents improvement. For each item and time point, treatment group differences favored CTP-543 over placebo.

[2H]C1([2H])C([C@@H](CC#N)n2cc(-c3ncnc4[nH]ccc34)cn2)C([2H])([2H])C([2H])([2H])C1([2H])[2H] [CTP-543, (R)-3-(4-(7H-pyrrolo[2,3-d]pyrimidin-4-yl)-1H-pyrazol-1-yl)-3-(cyclopentyl-2,2,3,3,4,4,5,5-d8) propanenitrile]
most common adverse events [1]: COVID-19, acne, nasopharyngitis, headache, asymptomatic COVID-19, creatinine phosphokinase increase, and upper respiratory tract infection | QPRO satisfaction with evenness of hair coverage, treatment group difference from placebo ([2]; 8 mg BID): −1.3 to −0.9 | QPRO satisfaction with eyebrows, treatment group difference from placebo ([2]; 8 mg BID): −1.2 to −1.0 | QPRO satisfaction with eyelashes, treatment group difference from placebo ([2]; 8 mg BID): −1.2 to −0.9 | QPRO satisfaction with thickness of hair coverage, treatment group difference from placebo ([2]; 8 mg BID): −1.3 to −1.0 | QPRO satisfaction with evenness of hair coverage, treatment group difference from placebo ([2]; 12 mg BID): −1.5 to −1.0 | QPRO satisfaction with eyebrows, treatment group difference from placebo ([2]; 12 mg BID): −1.5 to −1.1 | QPRO satisfaction with eyelashes, treatment group difference from placebo ([2]; 12 mg BID): −1.4 to −0.9 | QPRO satisfaction with thickness of hair coverage, treatment group difference from placebo ([2]; 12 mg BID): −1.6 to −1.1
